The text below walks through data of US7199259B2, “Resolution of α-(phenoxy)phenylacetic acid derivatives” (Metabolex, Inc., priority 2003, dated 2007).

Data set [1] in a line: Solubility in methylene chloride. The format is physicochemical.
Another data set has as its target cytochrome P450 2C9 (Homo sapiens, UniProt P11712). The settings on record: cited from earlier work.
Data set [2] is described as follows: Solubility of racemic CPTA sodium salt in water. The following applies: sodium hydroxide added to pH about 12.6 versus pH about 9.5. The format is physicochemical. As to the method: A 100-mL water jacketed resin pot with a magnetic stirrer was connected to a recirculating water bath and charged with 3.48 g of the racemic CPTA sodium salt and 20.0 g of water. The bath temperature was warmed to 35° C., and the slurry was stirred for one hour. The agitator was shut off, and the solid was allowed to settle for 30 min. The pH was 9.4. A 0.3036 g-sample of the supernate was removed and diluted to 25.00 mL with acetonitrile, and the solution was assayed by HPLC analysis. Analysis was repeated at 47° C. and at 19° C. An additional 3.01 g of CPTA sodium salt was added to maintain a slurry at the higher temperature, and 25 g of water was added to give a thinner slurry at the lower temperature. The pH was increased to 12.7 at ambient temperature by the addition of 50% aqueous sodium hydroxide, and the analysis was continued at 13.5, 25, 34, and 42° C.

Data set [3] in a line: Solubility of diastereomeric CPTA-CAF D base salts in 2-propanol. The format is physicochemical. The settings on record: for Wt % in solution: slurry held overnight. As to the method:
Samples of (−)-CPTA CAF D Base and (+)-CPTA CAF D Base (>98% ee) were added to 2-propanol in the amounts shown in Table 8, and mixed using an ultrasonic bath. All samples remained slurries. The slurries were held overnight at the temperature listed, then samples of the supernates were removed and analyzed by quantitative HPLC analysis to determine the CPTA concentration. Additionally, 8.00 g of (−)-CPTA CAF D Base salt required 54.2 g of 2-propanol for solution at 82° C. (14.7 wt %).

Data set [4] can be described thus: Solubility of CPTA CAF D-Base salts in 2-propanol containing 11% free CPTA. The data set is classed as physicochemical. The following applies: 2-propanol with 11% free CPTA, FIG. 3. The procedure: “Solvent” was prepared by dissolving 2.40 g of racemic CPTA in 19.42 g of 2-propanol (Fisher HPLC Grade) or 4.90 g of racemic CPTA in 31.4 g of ethanol. The respective concentrations of CPTA in solution were 11.0% and 13.5%. Solubility of the (−)-CPTA·CAF D-Base Salt (i.e., (−)-Salt) or (+)-CPTA.CAF D-Base Salt (i.e., (+)-Salt) was determined by a gravimetric method. At a given temperature, a portion of the supernatant liquid from a saturated solution was remove to a vial of known weight. The solution weight was determined, and the volatile solvent was evaporated with a purge of nitrogen. The solid was further dried to constant weight in a vacuum oven at about 50° C./1 mm Hg. The vial was re-weighed to determine the loss of volatile solvent and weight of solid remaining. From this, the amount of dissolved CPTA from the “solvent” could be calculated. Subtracting the weight of total solid from the CPTA gave the weight of soluble salt in the solvent.

cytochrome P450 2C9, sequence (P11712 whole entry): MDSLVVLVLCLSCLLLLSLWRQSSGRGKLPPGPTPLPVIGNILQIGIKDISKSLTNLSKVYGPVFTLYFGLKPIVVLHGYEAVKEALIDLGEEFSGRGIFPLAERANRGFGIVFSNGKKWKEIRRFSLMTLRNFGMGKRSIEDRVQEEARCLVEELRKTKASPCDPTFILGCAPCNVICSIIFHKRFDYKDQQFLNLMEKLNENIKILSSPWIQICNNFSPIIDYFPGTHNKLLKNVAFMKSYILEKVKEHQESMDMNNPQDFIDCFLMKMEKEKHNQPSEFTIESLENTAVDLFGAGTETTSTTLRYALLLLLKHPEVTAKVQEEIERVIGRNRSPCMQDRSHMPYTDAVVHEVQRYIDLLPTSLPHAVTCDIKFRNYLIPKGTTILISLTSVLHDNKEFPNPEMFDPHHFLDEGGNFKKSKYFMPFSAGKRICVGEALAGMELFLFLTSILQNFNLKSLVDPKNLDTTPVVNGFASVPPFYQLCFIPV

In the case of `O=C(O)C(Oc1cccc(C(F)(F)F)c1)c1ccc(Cl)cc1` (racemic) [halofenic acid, (4-chlorophenyl)(3-trifluoromethylphenoxy)acetic acid], in data set [1], the “solubility in methylene chloride” value is recorded as “less than 3.4%”. Moreover, the “inhibition of cytochrome P450 2C9” value on cytochrome P450 2C9 (racemic acid) is “inhibits”.
On to `O=C([O-])C(Oc1cccc(C(F)(F)F)c1)c1ccc(Cl)cc1.[Na+]` (racemic) [sodium salt of racemic CPTA], for which, in data set [2], the “aqueous solubility, effect of raising pH” value is given as “decreased the aqueous solubility”.
As to `NC(CO)C(O)c1ccc([N+](=O)[O-])cc1.O=C(O)C(Oc1cccc(C(F)(F)F)c1)c1ccc(Cl)cc1` (single isomer, unassigned; (+)) [(+)-CPTA CAF D Base Salt], the “Wt % in solution” value in data set [3] (8.5 °C) amounted to 1.32 Wt %; in data set [3] (20.0 °C), 1.85 Wt %; in data set [3] (45.8 °C) it was 6.03 Wt %. Further, the “solubility in 2-propanol containing 11% free CPTA versus pure 2-propanol” value in data set [4] is recorded as “greater solubility”.
Take `NC(CO)C(O)c1ccc([N+](=O)[O-])cc1.O=C(O)C(Oc1cccc(C(F)(F)F)c1)c1ccc(Cl)cc1` (single isomer, unassigned; (-)) [(−)-CPTA CAF D Base Salt]: the “Wt % in solution” value was 0.376 Wt % in data set [3] (7.8 °C), 0.688 Wt % in data set [3] (19.4 °C) and 2.35 Wt % in data set [3] (45.3 °C). Moreover, in data set [3] (82 °C, 8.00 g salt in 54.2 g 2-propanol), the “solubility in 2-propanol (amount required for solution)” value is listed as 14.7 wt %. Also, the “solubility in 2-propanol relative to the (+)-CPTA form” value in data set [3] (FIG. 1 profiles) is “approximately three times less soluble”. The “solubility in 2-propanol containing 11% free CPTA versus pure 2-propanol” value in data set [4] was “greater solubility”.
Consider `O=C(O)C(Oc1cccc(C(F)(F)F)c1)c1ccc(Cl)cc1` (single isomer, unassigned; (-)) [(−)-enantiomer of halofenic acid], for which the “ability to inhibit cytochrome P450 2C9 compared to the (+)-enantiomer” value at cytochrome P450 2C9 (relative to (+)-enantiomer of halofenic acid) was “about twenty-fold less active”.
